Values of other authors in patent publication US20220142893A1, “THE PROCESS OF DYEING KERATINOUS MATERIAL COMPRISING THE USE OF AN ORGANOSILICON COMPOUND, TWO COLOR-IMPARTING COMPOUNDS AND A FILM-FORMING POLYMER” (Henkel AG & Co. KGaA, priority 2019, published 2022).

Conditions: 25° C.

Row | solubility in water (in words) | Compound | solubility in water
1 |  | O=S(=O)([O-])c1ccc(N=Nc2c(O)ccc3ccccc23)cc1.[Na+] [Acid Orange 7, sodium salt of 4-[(2-hydroxy-1-naphthyl)azo]benzene sulphonate] | more than 7 g/L
2 | highly soluble | O=C([O-])C1=NN(c2ccc(S(=O)(=O)[O-])cc2)C(=O)C1N=Nc1ccc(S(=O)(=O)[O-])cc1.[Na+].[Na+].[Na+] (stereo not shown) [Acid Yellow 23, trisodium salt of 4,5-dihydro-5-oxo-1-(4-sulfophenyl)-4-((4-sulfophenyl)azo)-1H-pyrazole-3-carboxylic acid] | 
3 |  | O=C([O-])c1c(Cl)c(Cl)c(Cl)c(Cl)c1-c1c2c(Br)cc(=O)c(Br)c-2oc2c(Br)c(O)cc(Br)c12.O=C([O-])c1c(Cl)c(Cl)c(Cl)c(Cl)c1-c1c2c(Br)cc(=O)c(Br)c-2oc2c(Br)c(O)cc(Br)c12.[Na+].[Na+] [Acid Red 92, disodium salt of 3,4,5,6-tetrachloro-2-(1,4,5,8-tetrabromo-6-hydroxy-3-oxoxanthen-9-yl)benzoic acid] | greater than 10 g/L
4 |  | Nc1cc(S(=O)(=O)[O-])cc2cc(S(=O)(=O)[O-])c(N=Nc3ccccc3)c(O)c12.[Na+].[Na+] [Acid Red 33, disodium salt of 5-amino-4-hydroxy-3-(phenylazo)-naphthalene-2,7-disulphonate] | 2500 µg/mL
